Results published in article PMC11279465, “Dual Inhibitors of P-gp and Carbonic Anhydrase XII (hCA XII) against Tumor Multidrug Resistance with Piperazine Scaffold” (Molecules, 2024).

How the values were obtained:
HT29/DOX cells [1] = test: TBARS (lipid peroxidation, 4-HNE kit); type: cell-based, human; conditions: 1 µM
Procedure: (§1) Selected compounds have been tested for their cytotoxic activity at 24 h on HT29/DOX and A549/DOX cells and on the parental HT29 and A549 cells by MTT assay. To evaluate the mechanisms involved in CS, reactive oxygen species (ROS) were measured using the fluorescent probe 5-(and-6)-chloromethyl-2′,7′-dichlorodihydro-fluorescein diacetate-acetoxymethyl ester (DCFDA-AM), as previously reported. The results were expressed as nmol/mg cellular proteins. The amount of TBARS, as an index of lipoperoxidation, was measured with the Lipid Peroxidation (4-HNE) Assay Kit (Abcam, Cambridge, UK) that evaluates the 4-hydroxy-nonenale, one of the TBARS Results were expressed as nmoles/mg mitochondrial protein.

A549/DOX cells [2] = test: TBARS (lipid peroxidation, 4-HNE kit); type: cell-based, human; conditions: 1 µM
Procedure: as §1

P-gp [3] = molecular target: T1, P-gp (Homo sapiens, UniProt P08183); test: P-gp ATPase activity (A549/DOX cells); type: biochemical; parameters: endogenous in cells; host or cells: HT29/DOX (A27) and A549/DOX (A28); conditions: 1 µM, compared with A549
Procedure: (§2) Plasma-membrane vesicles enriched with P-gp were prepared by sequential centrifugation as detailed previously. The ATPase activity of immunopurified P-gp was evaluated spectrophotometrically by measuring the absorbance of the phosphate hydrolyzed from ATP at 620 nm, using a Synergy HT Multi-Detection Microplate Reader (Bio-Tek Instruments). The absorbance was converted into μmol hydrolyzed phosphate/min/mg proteins, according to the titration curve previously prepared.

MRP1 = molecular target: T2, MRP1 (Homo sapiens, UniProt P33527); test: Calcein-AM transport inhibition in MDCK-MRP1 cells; type: cell-based; conditions: mean ± SEM
T2 construct: expressed in transfected cells; host or cells: MDCK (Madin-Darby Canine Kidney)
Excerpt: (§3) The MDR interaction potency of these compounds was studied by detecting the inhibition of the P-gp-, MRP1- or BCRP-mediated efflux of a substrate in cells overexpressing the studied pumps. In detail, we measured the following: (i) the transport inhibition of the profluorescent probe calcein-AM (P-gp and MRP1 substrate) in MDCK-MDR1 and MDCK-MRP1 cells (P-gp- and MRP1-overexpressing cells, respectively); (ii) the transport inhibition of the fluorescent probe Hoechst 33342 (BCRP substrate) in MDCK-BCRP cells (BCRP-overexpressing cells).
Experiments were performed as previously described. MDCK-MDR1 and MDCK-MRP1 cells (30,000 cells per well) were seeded in a 96-well black CulturePlate in 100 µL of medium and allowed to grow overnight in a humidified atmosphere of 5% CO2 at 37 °C. […] All wells were washed 3 times with 100 µL ice-cold PBS and read with Victor3 (PerkinElmer) after adding 100 µL of cold PBS. […] In these experimental conditions, cell Calcein-AM accumulation in the absence and in the presence of each tested compound was evaluated and compared to the basal level of fluorescence derived from untreated cells. The increase in fluorescence from the baseline level was measured in the treated wells. EC50 values were determined by fitting the rate of fluorescence increase versus log[dose].

HT29/DOX cells [4] = test: Intrinsic cytotoxicity (MTT); type: cell-based, human; conditions: compound alone, 1 µM, 48 h; HT29/DOX vs HT29
Procedure: (§4) All compounds were preliminarily studied to evaluate their intrinsic cytotoxicity at different concentrations (from 10 nM to 50 µM) in the parental HT29 and A549 and the resistant HT29/DOX and A549/DOX cells using the MTT assay.
(§5) The intrinsic toxicity of the studied compounds was determined by an MTT assay. K562 and K562/DOX were exposed for 72 h with compounds at 1 and 3 µM concentrations while HT29, A549, HT29/DOX and A549/DOX cells were incubated for 48 h with compounds used at different concentrations (from 10 nM to 50 µM). The percentage of growth compared to the untreated control was transformed into histograms with the GraphPad Prism 5 program. […]

A549/DOX cells [5] = test: Intrinsic cytotoxicity (MTT); type: cell-based, human; conditions: compound alone, 1 µM, 48 h; A549/DOX vs A549
Procedure: as §4, §5

K562/DOX cells = test: Doxorubicin cytotoxicity enhancement assay (MTT); type: cell-based, human; conditions: 72 h
Procedure: K562 is a highly undifferentiated erythroleukemia cell line. The doxorubicin-resistant K562/DOX cells overexpress almost exclusively the transporter membrane protein P-gp.
K562/DOX cells were incubated for 72 h with different concentrations of doxorubicin in combination with 1 or 3 µM of all compounds. […] HT29, A549, HT29/DOX and A549/DOX cells were incubated for 48 h with 5 µM doxorubicin, alone or in combination with 1 or 3 µM of selected compounds. Cell viability of the cell lines was measured by the MTT assay, using a Synergy HT microplate spectrofluorometer (Bio-Tek Instruments, Winooski, VT, USA). The absorbance of untreated cells was considered 100%; results were expressed as a percentage of viable treated cells versus the control untreated cells.

P-gp [6] = molecular target: T1, P-gp; test: Calcein-AM transport inhibition in MDCK-MDR1 cells; type: cell-based; parameters: expressed in transfected cells; host or cells: MDCK (Madin-Darby Canine Kidney); conditions: mean ± SEM
Excerpt: as §3
Experiments were performed as previously described. MDCK-MDR1 and MDCK-MRP1 cells (30,000 cells per well) were seeded in a 96-well black CulturePlate in 100 µL of medium and allowed to grow overnight in a humidified atmosphere of 5% CO2 at 37 °C. Tested compounds (100 µL) in a final concentration ranging between 0.01 nM and 100 µM, solubilized in culture medium, were added to the monolayers. After 30 min in a humidified atmosphere of 5% CO2 at 37 °C, 100 µL of Calcein-AM in phosphate-buffered saline (PBS) was added to obtain a final concentration of 2.5 µM and the plate was incubated for 30 min. All wells were washed 3 times with 100 µL ice-cold PBS and read with Victor3 (PerkinElmer) after adding 100 µL of cold PBS. Excitation and emission wavelengths of 485 nm and 535 nm, respectively, were used. In these experimental conditions, cell Calcein-AM accumulation in the absence and in the presence of each tested compound was evaluated and compared to the basal level of fluorescence derived from untreated cells. The increase in fluorescence from the baseline level was measured in the treated wells. EC50 values were determined by fitting the rate of fluorescence increase versus log[dose].

hCA I = molecular target: T3, hCA I (Homo sapiens, UniProt P00915); test: CA inhibition, stopped-flow CO2 hydrase assay; type: biochemical; conditions: stopped-flow technique; incubation time 6 h; mean of 3 assays
T3 construct: made in house
Procedure: (§6) Four hCA isoforms were used in this assay: the cytosolic hCA I and II and the tumor-associated transmembrane hCA IX and XII isoforms. Acetazolamide (AAZ) was used as a standard inhibitor.
(§7) An SX.18MV-R Applied Photophysics (Oxford, UK) stopped-flow instrument has been used to assay the catalytic/inhibition of various CA isozymes. […] Saturated CO2 solutions in water at 25 °C were used as substrate. Stock solutions of inhibitors were prepared at a concentration of 10 μM (in DMSO-water 1:1, v/v) and dilutions up to 0.01 nM were carried out with the assay buffer mentioned above. […] Inhibitor and enzyme solutions were preincubated together for 6 h at room temperature prior to assay in order to allow for the formation of the E-I complex. […] The inhibition constants were obtained by non-linear least-squares methods using the Cheng–Prusoff equation, as reported earlier, and represent the mean from at least three different determinations.

hCA IX = molecular target: T4, hCA IX (Homo sapiens, UniProt Q16790); test: CA inhibition, stopped-flow CO2 hydrase assay; type: biochemical; conditions: stopped-flow technique; incubation time 6 h; mean of 3 assays
T4 construct: made in house
Procedure: as §6, §7

hCA II = molecular target: T5, hCA II (Homo sapiens, UniProt P00918); test: CA inhibition, stopped-flow CO2 hydrase assay; type: biochemical; conditions: stopped-flow technique; incubation time 6 h; mean of 3 assays
T5 construct: made in house
Procedure: as §6, §7

hCA XII = molecular target: T6, hCA XII (Homo sapiens, UniProt O43570); test: CA inhibition, stopped-flow CO2 hydrase assay; type: biochemical; conditions: stopped-flow technique; incubation time 6 h; mean of 3 assays
T6 construct: made in house
Procedure: as §6, §7

P-gp [7] = molecular target: T1, P-gp; test: P-gp ATPase activity (HT29/DOX cells); type: biochemical; parameters: endogenous in cells; host or cells: HT29/DOX (A27) and A549/DOX (A28); conditions: 1 µM, compared with HT29
Procedure: as §2

HT29/DOX cells [8] = test: ROS measurement (DCFDA-AM); type: cell-based, human; conditions: 1 µM
Procedure: as §1

A549/DOX cells [9] = test: ROS measurement (DCFDA-AM); type: cell-based, human; conditions: 1 µM
Procedure: as §1

HT29/DOX cells [10] = test: Membrane fluidity; type: cell-based, human; conditions: 1 µM
Procedure: (§8) Membrane fluidity was measured fluorometrically using the Membrane Fluidity Kit, Abcam, according to the manufacturer’s instructions.

A549/DOX cells [11] = test: Membrane fluidity; type: cell-based, human; conditions: 1 µM
Procedure: as §8

T1 sequence (P08183 whole entry): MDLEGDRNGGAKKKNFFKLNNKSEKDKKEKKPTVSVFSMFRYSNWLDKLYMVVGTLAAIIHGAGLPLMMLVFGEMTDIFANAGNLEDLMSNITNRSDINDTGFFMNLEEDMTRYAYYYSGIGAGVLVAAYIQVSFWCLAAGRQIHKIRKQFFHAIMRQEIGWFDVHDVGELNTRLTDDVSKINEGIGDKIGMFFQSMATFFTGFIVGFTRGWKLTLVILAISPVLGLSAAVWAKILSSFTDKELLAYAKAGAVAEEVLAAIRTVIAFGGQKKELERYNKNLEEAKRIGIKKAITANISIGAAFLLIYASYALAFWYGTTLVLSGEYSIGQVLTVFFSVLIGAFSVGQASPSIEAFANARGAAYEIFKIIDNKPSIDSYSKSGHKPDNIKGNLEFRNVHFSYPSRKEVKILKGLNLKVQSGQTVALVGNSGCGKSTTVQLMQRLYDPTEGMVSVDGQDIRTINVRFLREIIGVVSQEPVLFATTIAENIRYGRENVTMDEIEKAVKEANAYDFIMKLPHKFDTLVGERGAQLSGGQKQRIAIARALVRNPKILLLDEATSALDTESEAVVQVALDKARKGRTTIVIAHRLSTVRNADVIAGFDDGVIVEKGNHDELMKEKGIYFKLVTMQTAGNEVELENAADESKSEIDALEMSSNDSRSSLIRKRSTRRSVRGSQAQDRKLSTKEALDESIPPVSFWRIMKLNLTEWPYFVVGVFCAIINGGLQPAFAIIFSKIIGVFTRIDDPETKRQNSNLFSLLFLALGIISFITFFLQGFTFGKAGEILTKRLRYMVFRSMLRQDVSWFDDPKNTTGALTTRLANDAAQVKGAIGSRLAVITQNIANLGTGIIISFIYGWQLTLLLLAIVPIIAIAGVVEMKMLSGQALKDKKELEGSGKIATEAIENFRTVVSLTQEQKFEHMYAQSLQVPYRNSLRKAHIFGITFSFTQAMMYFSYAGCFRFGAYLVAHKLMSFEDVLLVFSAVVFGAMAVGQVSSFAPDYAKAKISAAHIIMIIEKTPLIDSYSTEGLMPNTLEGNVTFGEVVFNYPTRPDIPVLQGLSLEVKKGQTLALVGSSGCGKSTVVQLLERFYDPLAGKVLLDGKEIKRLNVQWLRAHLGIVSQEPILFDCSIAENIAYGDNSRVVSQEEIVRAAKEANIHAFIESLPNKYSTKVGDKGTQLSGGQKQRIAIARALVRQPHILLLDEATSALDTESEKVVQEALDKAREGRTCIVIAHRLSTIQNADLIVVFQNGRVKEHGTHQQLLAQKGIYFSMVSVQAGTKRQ
T6 sequence (O43570 25-354): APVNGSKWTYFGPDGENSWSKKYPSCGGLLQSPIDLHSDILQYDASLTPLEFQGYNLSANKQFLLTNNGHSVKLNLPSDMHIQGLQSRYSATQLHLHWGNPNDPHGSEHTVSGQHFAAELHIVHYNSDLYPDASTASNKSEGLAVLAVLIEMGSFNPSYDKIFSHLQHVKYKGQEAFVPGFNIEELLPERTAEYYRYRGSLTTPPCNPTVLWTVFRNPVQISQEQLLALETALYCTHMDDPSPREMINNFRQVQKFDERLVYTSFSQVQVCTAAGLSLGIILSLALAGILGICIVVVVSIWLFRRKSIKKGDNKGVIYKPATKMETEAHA
T2 sequence (P33527 whole entry): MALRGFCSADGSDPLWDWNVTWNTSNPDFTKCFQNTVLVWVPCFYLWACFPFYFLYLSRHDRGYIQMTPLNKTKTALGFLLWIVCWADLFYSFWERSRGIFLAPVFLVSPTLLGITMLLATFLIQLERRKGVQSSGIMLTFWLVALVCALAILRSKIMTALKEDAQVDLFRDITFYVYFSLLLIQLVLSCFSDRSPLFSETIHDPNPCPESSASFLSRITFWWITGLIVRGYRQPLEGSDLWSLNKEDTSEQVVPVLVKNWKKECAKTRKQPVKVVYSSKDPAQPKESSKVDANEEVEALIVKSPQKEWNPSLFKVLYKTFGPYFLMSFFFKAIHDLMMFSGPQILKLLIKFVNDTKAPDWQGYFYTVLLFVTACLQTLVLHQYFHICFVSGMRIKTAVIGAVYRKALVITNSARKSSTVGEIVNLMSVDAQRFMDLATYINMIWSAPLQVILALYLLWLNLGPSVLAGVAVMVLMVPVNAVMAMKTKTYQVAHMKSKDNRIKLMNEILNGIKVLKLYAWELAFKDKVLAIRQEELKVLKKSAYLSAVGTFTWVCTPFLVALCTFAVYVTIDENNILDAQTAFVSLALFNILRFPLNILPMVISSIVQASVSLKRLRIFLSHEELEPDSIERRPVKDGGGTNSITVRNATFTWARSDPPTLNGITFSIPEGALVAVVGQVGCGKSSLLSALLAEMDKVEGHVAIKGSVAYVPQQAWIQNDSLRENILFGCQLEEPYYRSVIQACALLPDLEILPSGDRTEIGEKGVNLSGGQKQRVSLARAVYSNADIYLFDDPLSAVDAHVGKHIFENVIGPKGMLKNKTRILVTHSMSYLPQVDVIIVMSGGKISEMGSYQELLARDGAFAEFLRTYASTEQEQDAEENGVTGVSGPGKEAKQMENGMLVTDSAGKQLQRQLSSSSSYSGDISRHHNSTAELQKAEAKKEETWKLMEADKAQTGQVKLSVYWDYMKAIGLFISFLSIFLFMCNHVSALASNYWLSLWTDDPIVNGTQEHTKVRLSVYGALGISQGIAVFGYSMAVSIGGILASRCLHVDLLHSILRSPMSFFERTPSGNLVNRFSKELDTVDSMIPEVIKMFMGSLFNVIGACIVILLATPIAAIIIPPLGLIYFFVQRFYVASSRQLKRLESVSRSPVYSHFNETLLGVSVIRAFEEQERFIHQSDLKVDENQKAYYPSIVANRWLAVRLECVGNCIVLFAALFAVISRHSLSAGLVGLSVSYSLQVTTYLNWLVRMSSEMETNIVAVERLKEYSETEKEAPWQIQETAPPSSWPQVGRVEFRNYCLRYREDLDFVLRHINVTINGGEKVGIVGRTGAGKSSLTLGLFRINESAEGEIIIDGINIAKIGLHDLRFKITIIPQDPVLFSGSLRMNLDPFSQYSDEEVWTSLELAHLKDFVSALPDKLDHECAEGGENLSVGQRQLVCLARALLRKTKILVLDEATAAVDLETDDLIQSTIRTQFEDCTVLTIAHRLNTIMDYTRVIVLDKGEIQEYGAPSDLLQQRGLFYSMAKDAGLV
T3 sequence (P00915 whole entry): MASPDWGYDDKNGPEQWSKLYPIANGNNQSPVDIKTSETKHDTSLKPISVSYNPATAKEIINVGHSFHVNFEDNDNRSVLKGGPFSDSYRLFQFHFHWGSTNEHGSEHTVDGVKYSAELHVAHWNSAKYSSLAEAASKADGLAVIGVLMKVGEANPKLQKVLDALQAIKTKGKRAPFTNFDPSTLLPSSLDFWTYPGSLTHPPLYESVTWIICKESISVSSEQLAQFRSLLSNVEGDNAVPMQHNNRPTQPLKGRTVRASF

EC50 (MRP1): 52 ± 10 µM
EC50 (P-gp [6]): 14.5 ± 0.25 µM
Ki (hCA I): > 10 µM
Ki (hCA IX): 0.0237 µM
Ki (hCA II): > 10 µM
Ki (hCA XII): 0.0062 µM
SMILES: COc1cc(CN2CCN(CCOc3ccc4ccc(=O)oc4c3)CC2)cc(OC)c1OC [Compound 13, 7-(2-(4-(3,4,5-Trimethoxybenzyl)piperazin-1-yl)ethoxy)-2H-chromen-2-one]
increase of TBARS levels compared to the control (HT29/DOX cells [1]): 2.6 times
increase of TBARS levels compared to the control (A549/DOX cells [2]): 4 times
P-gp catalytic activity (P-gp [3]): lowered the catalytic efficacy of P-gp in resistant cells to levels comparable to drug-sensitive HT29 and A549 cells
more cytotoxic in resistant cells than in parental sensitive cells (HT29/DOX cells [4]): 15%-20%
more cytotoxic in resistant cells than in parental sensitive cells (A549/DOX cells [5]): 15%-20%
RF (Reversal Fold: IC50 of doxorubicin alone / in presence of modulator) (K562/DOX cells; compound at 1 µM): 1.0
RF (Reversal Fold: IC50 of doxorubicin alone / in presence of modulator) (K562/DOX cells; compound at 3 µM): 1.9
P-gp catalytic activity (P-gp [7]): lowered the catalytic efficacy of P-gp in resistant cells to levels comparable to drug-sensitive HT29 and A549 cells
increase of ROS levels compared to the control (HT29/DOX cells [8]): 3–4 times
increase of ROS levels compared to the control (A549/DOX cells [9]): 7–8 times
membrane fluidity (HT29/DOX cells [10]): increased membrane fluidity
membrane fluidity (A549/DOX cells [11]): increased membrane fluidity
